Where two headings read alike, the source gives them in different places.
How the values were obtained:
MCL-1 = MCL-1 (Homo sapiens, UniProt Q07820); test: Protein-protein interaction assay MCL-1/Noxa BH3 peptide (MCL-1 assay), TR-FRET; format: binding; conditions: MBP-MCL-1 / Noxa BH3-derived peptide, median
Procedure: Protein-Protein Interaction Assay: MCL-1/Noxa BH3 Peptide (MCL-1 Assay) […]
In the assay 11 different concentrations of each compound (0.1 nM, 0.33 nM, 1.1 nM, 3.8 nM, 13 nM, 44 nM, 0.15 μM, 0.51 μM, 1.7 μM, 5.9 μM and 20 μM) were typically measured as duplicates in the same microtiter plate. For that, 100-fold concentrated DMSO solutions were prepared by serial dilutions (1:3.4) of a 2 mM stock solution in a clear, 384-well microtiter plate (Greiner Bio-One, Frickenhausen, Germany). From there, 50 ni were transferred in a dark test plate (Greiner Bio-One, Frickenhausen, Germany). The assay was initiated by addition of 2 μl of a 2.5-fold concentrated MBP-MCL-1 solution (usually for a 1 nM end concentration in 5 μl reaction volume) in aqueous assay buffer [50 mM Tris/HCl pH 7, 100 mM sodium chloride (NaCl), 50 mM potassium fluoride (KF), 0.005% Tween-20, 2 mM DTT, 0.1% bovine gamma globulin (BGG)] to the compounds in the assay plate. This was followed by a 10-minute incubation step at 22° C. for pre-equilibration of the putative complex between MBP-MCL-1 and the compounds. After that.
The mixture was incubated in the dark for one hour at 22° C. and then overnight at 4° C. The formation of MCL-1/Noxa complexes was determined by measuring the resonance energy transfer of the anti-MBP- Eu-cryptate antibody to the streptavidin-XL665 present in the reaction. For that purpose, the fluorescence emission at 620 nm and 665 nm after excitation at 330-350 nm was measured in a TR-FRET measuring instrument, for instance a Rubystar or a Pherastar (both from BMG Lab Technologies, Offenburg, Germany) or a Viewlux (Perkin-Elmer). The ratio of the emission at 665 nm and at 622 nm was used as indicator of the amount of MCL-1/NOXA complexes present.
The resulting data (ratio) were normalized, taking 0% inhibition as the mean value of control measurements (usually 32 data points) where all reagents were included. In this case 50 nl DMSO were used instead of compounds. A 100% inhibition corresponded to the mean value of control measurements (usually 32 data points) where all reagents except MCL-1 were included. IC50 values were determined by regression analysis based on a 4 parameter equation (minimum, maximum, IC50, Hill; Y=Max+(Min−Max)/(1+(X/IC50)^Hill) using the Screener Software (Genedata).

SUDHL5 [1] = test: Induction of caspase-3/7 activity (Caspase-Glo 3/7), SUDHL5; format: cell-based; conditions: caspase-3/7 induction, SUDHL5 cells, 3 h treatment, median
Procedure: (§1) Induction of Caspase-317 Activity Upon Treatment of Cells with Selected Compounds
(§2) The BH3-domain of MCL-1 sequesters pro-apoptotic proteins, thereby inhibiting apoptosis. In contrast, MCL-1 inhibitors are expected to antagonize this effect leading to an increase in apoptosis, which can be determined by measuring the activity of caspase-3/7.
(§3) The activity of caspase-3/7 was determined in DLBCL (Diffuse large B-cell lymphoma) cell lines (SUDHL5 and SUDHL10) upon treatment with different compounds, using the Caspase-Glo® 3/7 reagent from Promega (G8092).
(§4) Rim wells were excluded. The cells were incubated for 3 h hours in a humidified incubator at 37° C.
(§5) For the evaluation of the results, the background measured with “medium-only” was subtracted from all other values. […] The Bella DRC Master Sheet was used to calculate EC50s, with fixed C0=1 and CI=plateaulmax induction for the reference compound.

SUDHL10 [2] = test: Induction of caspase-3/7 activity (Caspase-Glo 3/7), SUDHL10; format: cell-based; conditions: caspase-3/7 induction, SUDHL10 cells, 3 h treatment, median
Procedure: as §1, §2, §3, §4, §5

SUDHL5 [3] = test: Anti-proliferative effect (CellTiter-Glo, 72 h), SUDHL5; format: cell-based; conditions: SUDHL5 cells, antiproliferation, 72 h incubation, median, read-out: Antiproli SUDHL5 [M] (median)
Procedure: (§6) Assessment of the Anti-Proliferative Effect of Compounds in Different Cell Lines
(§7) The impact of compounds on the proliferation of different cell lines was assessed using the CellTiter-Glo® Luminescent Cell Viability reagent from Promega (G7573). Of note, SUDHL10 and SUDHL5 (DLBCL), NCI-H929 (Multiple Myeloma), A2780 (ovarian carcinoma) as well as MV-4-11(AML) cells are sensitive to MCL-1 inhibition.
(§8) In parallel, cells were plated in a reference (day 0) plate for time zero determination.
(§9) Rim wells were excluded. The cells were incubated for 72 h hours in a humidified incubator at 37° C. The day 0 plate was measured by adding 30 μl/well of CTG solution (CellTiter-Glo® Luminescent Cell Viability reagent, Promega G7573) to time zero wells in the reference plate followed by a 10 minutes incubation and luminescence reading at 0.1 ms, using the PHERAstar FS microplate reader (BMG Labtech).
(§10) After 72 h incubation, the treated plates were measured in the same way as the day 0 plate mentioned above.

SUDHL5 [4] = test: Induction of cytotoxicity (CellTiter-Glo, 5 h), SUDHL5
SUDHL10 [5] = test: Induction of cytotoxicity (CellTiter-Glo, 5 h), SUDHL10
Procedure: Therefore, cytotoxicity assays were run in parallel in SUDHL5 and SUDHL10 cells.
The different cell lines were plated in culture medium (RPMI 1640 [GIBCO #22400-089]supplemented with 10% Fetal Bovine Serum) at a density of 3.300 cells in 30 μl/well in a sterile, solid black, flat bottom, polystyrene, TC-treated 384-well microplate (Corning #3571) using Multidrop Combi Reagent Dispenser. As a control, medium without cells was also added to the plate. Cells were incubated in a humidified incubator at 37° C. overnight. On the next day, the cells were treated with compounds (stock solution, 10 mM in DMSO) using the HP D300 Digital Dispenser in a concentration range of 3.3×10e-5 M (33 μM) to 5×10e-9 M (5 nM) in a single-dot curve with at least 16 dilutions and a DMSO concentration of 0.33%. Rim wells were excluded. The cells were incubated for 5 h hours in a humidified incubator at 37° C. After this incubation, 30 μl of CellTiter-Glo@ Luminescent Cell Viability reagent (Promega, G7573) was added to each well using the Multidrop Combi Reagent Dispenser, followed by 15 min incubation on a shaker at room temperature. Finally, luminescence was read at 0.1 ms, with a gain of 3000 using the PHERAstar FS microplate reader (BMG Labtech).
The Bella DRC Master Sheet was used to calculate IC50s, with fixed CI=0 and C0=1.

A2780 = test: Anti-proliferative effect (CellTiter-Glo, 72 h), A2780; format: cell-based; conditions: A2780 cells, median, read-out: IC50 antiproliferation assay A2780 [M] (median)
Procedure: as §6, §7, §8, §9, §10

[6] = Homo sapiens, SU-DHL-5, 5 h, read-out: Cytotox SUDHL5 [M] (median), SUDHL5 cells, cytotoxicity induction, CellTiter-Glo, 5 h incubation, median
[7] = Homo sapiens, SU-DHL10, 5 h, read-out: Cytotox SUDHL10 [M] (median), SUDHL10 cells, cytotoxicity induction, CellTiter-Glo, 5 h incubation, median
[8] = read-out: Cytotox SUDHL5 [M] (median), SUDHL5 cells, cytotoxicity induction, CellTiter-Glo, 5 h incubation, median

Sequence of MCL-1 (Q07820 whole entry): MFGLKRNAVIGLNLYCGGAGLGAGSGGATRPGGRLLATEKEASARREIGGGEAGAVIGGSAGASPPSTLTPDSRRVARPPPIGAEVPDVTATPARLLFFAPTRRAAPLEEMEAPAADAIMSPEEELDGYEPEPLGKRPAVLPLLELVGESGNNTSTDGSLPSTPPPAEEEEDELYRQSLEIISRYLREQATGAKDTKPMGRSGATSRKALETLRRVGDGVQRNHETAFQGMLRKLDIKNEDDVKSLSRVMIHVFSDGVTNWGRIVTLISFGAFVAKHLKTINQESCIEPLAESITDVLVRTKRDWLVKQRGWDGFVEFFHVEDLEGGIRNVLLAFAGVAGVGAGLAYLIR

## Cn1nc(COc2ccc(C3(O)CCOCC3)cc2)c2c1COCCCCn1c(C(=O)O)c(CCCOc3cccc4ccccc34)c3cccc-2c31 (racemic) [Example 1-61, (rac)-3-{[4-(4-hydroxytetrahydro-2H-pyran-4-yl)phenoxy]methyl}-1-methyl-7-[3-(naphthalen-1-yloxy)propyl]-1,10,11,12,13,15-hexahydropyrazolo[4′,3′:9,10][1,6]oxazacycloundecino[8,7,6-hi]indole-8-carboxylic Acid]
MCL-1
  IC50: 0.00293 µM
SUDHL5 [1]; Homo sapiens, SU-DHL-5, 3 h
  EC50: 6.16 µM
SUDHL10 [2]; Homo sapiens, SU-DHL10, 3 h
  EC50: 10.7 µM
SUDHL5 [3]; Homo sapiens, SU-DHL-5, 72 h
  IC50: 5.41e-06 M
SUDHL5 [4]; [6]
  IC50: 1.33e-05 M
SUDHL10 [5]; [7]
  IC50: 2.11e-05 M

## COC1(c2ccc(OCc3nn(C)c4c3-c3cccc5c(CCCOc6cccc7ccccc67)c(C(=O)O)n(c35)CCCCOC4)cc2)CCOCC1 (racemic) [Example 1-65, (rac)-3-{[4-(4-methoxytetrahydro-2H-pyran-4-yl)phenoxy]methyl}-1-methyl-7-[3-(naphthalen-1-yloxy)propyl]-1,10,11,12,13,15-hexahydropyrazolo[4′,3′:9,10][1,6]oxazacycloundecino[8,7,6-hi]indole-8-carboxylic Acid]
MCL-1
  IC50: 0.031 µM
SUDHL5 [1]; Homo sapiens, SU-DHL-5, 3 h
  EC50: 16.3 µM
SUDHL10 [2]; Homo sapiens, SU-DHL10, 3 h
  EC50: 17.5 µM
SUDHL5 [3]; Homo sapiens, SU-DHL-5, 72 h
  IC50: 3.71e-06 M
SUDHL5 [4]; [6]
  IC50: > 3.3e-05 M
SUDHL10 [5]; [7]
  IC50: 3.13e-05 M

## Cn1nc(CO)c2c1COCCCCn1c(C(=O)O)c(CCCOc3cccc4ccccc34)c3cccc-2c31 (racemic) [Example 1-95, (rac)-3-(hydroxymethyl)-1-methyl-7-[3-(naphthalen-1-yloxy)propyl]-1,10,11,12,13,15-hexahydropyrazolo[4′,3′:9,10][1,6]oxazacycloundecino[8,7,6-hi]indole-8-carboxylic Acid]
MCL-1
  IC50: 0.0039 µM
SUDHL5 [1]; Homo sapiens, SU-DHL-5, 3 h
  EC50: 10.8 µM
SUDHL10 [2]; Homo sapiens, SU-DHL10, 3 h
  EC50: 22.7 µM
SUDHL5 [3]; Homo sapiens, SU-DHL-5, 72 h
  IC50: 4.8e-06 M
SUDHL5 [4]; [6]
  IC50: 1.98e-05 M
SUDHL10 [5]; [7]
  IC50: > 3.3e-05 M

## Cc1c2c(nn1CC(F)(F)F)COC/C=C\Cn1c(C(=O)O)c(CCCOc3cccc4ccccc34)c3cccc-2c31 (racemic) [Example 091, (rac)-(11Z)-3-methyl-7-[3-(naphthalen-1-yloxy)propyl]-2-(2,2,2-trifluoroethyl)-2,10,13,15-tetrahydropyrazolo[4′,3′:9,10][1,6]oxazacycloundecino[8,7,6-hi]indole-8-carboxylic Acid]
MCL-1
  IC50: 0.0202 µM
SUDHL5 [1]; Homo sapiens, SU-DHL-5, 3 h
  EC50: 23.5 µM
SUDHL10 [2]; Homo sapiens, SU-DHL10, 3 h
  EC50: 31.8 µM
SUDHL5 [3]; Homo sapiens, SU-DHL-5, 72 h
  IC50: 6.92e-06 M
A2780; Homo sapiens, A2780, 72 h
  IC50: 7.1e-06 M
SUDHL5 [4]; [6]
  IC50: 1.48e-05 M
SUDHL10 [5]; [7]
  IC50: 1.89e-05 M

## COCCn1nc(C2CC2)c2c1COCCCCn1c(C(=O)O)c(CCCOc3cccc4ccccc34)c3cccc-2c31 (racemic) [Example 102, (rac)-3-Cyclopropyl-1-(2-methoxyethyl)-7-[3-(naphthalen-1-yloxy)propyl]-1,10,11,12,13,15-hexahydropyrazolo[4′,3′:9,10][1,6]oxazacycloundecino[8,7,6-hi]indole-8-carboxylic Acid]
MCL-1
  IC50: 0.00682 µM
SUDHL5 [1]; Homo sapiens, SU-DHL-5, 3 h
  EC50: 8.26 µM
SUDHL10 [2]; Homo sapiens, SU-DHL10, 3 h
  EC50: > 33 µM
SUDHL5 [3]; Homo sapiens, SU-DHL-5, 72 h
  IC50: 1.32e-05 M
A2780; Homo sapiens, A2780, 72 h
  IC50: > 3.3e-05 M
SUDHL5 [4]; [6]
  IC50: 6.12e-06 M
SUDHL10 [5]; [7]
  IC50: > 3.3e-05 M

## Cc1nn(CC(F)(F)F)c2c1-c1cccc3c(CCCOc4cccc5ccccc45)c(C(=O)O)n(c13)CCCCOC2 (racemic) [Example 109, (rac)-3-methyl-7-[3-(naphthalen-1-yloxy)propyl]-1-(2,2,2-trifluoroethyl)-1,10,11,12,13,15-hexahydropyrazolo[4′,3′:9,10][1,6]oxazacycloundecino[8,7,6-hi]indole-8-carboxylic acid]
MCL-1
  IC50: 0.0111 µM
SUDHL5 [1]; Homo sapiens, SU-DHL-5, 3 h
  EC50: > 33 µM
SUDHL10 [2]; Homo sapiens, SU-DHL10, 3 h
  EC50: > 33 µM
SUDHL5 [3]; Homo sapiens, SU-DHL-5, 72 h
  IC50: 1.56e-05 M
A2780; Homo sapiens, A2780, 72 h
  IC50: 1.9e-05 M
SUDHL5 [4]; [6]
  IC50: > 3.3e-05 M
SUDHL10 [5]; [7]
  IC50: > 3.3e-05 M

## Cn1nc(CCN2CCOCC2)c2c1COCCCCn1c(C(=O)O)c(CCCOc3cccc4ccccc34)c3cccc-2c31 (racemic) [Example 150, (rac)-1-methyl-3-[2-(morpholin-4-yl)ethyl]-7-[3-(naphthalen-1-yloxy)propyl]-1,10,11,12,13,15-hexahydropyrazolo[4′,3′:9,10][1,6]oxazacycloundecino[8,7,6-hi]indole-8-carboxylic Acid]
MCL-1
  IC50: 0.00761 µM
SUDHL5 [1]; Homo sapiens, SU-DHL-5, 3 h
  EC50: > 33 µM
SUDHL10 [2]; Homo sapiens, SU-DHL10, 3 h
  EC50: 28 µM
SUDHL5 [3]; Homo sapiens, SU-DHL-5, 72 h
  IC50: 2.11e-05 M
A2780; Homo sapiens, A2780, 72 h
  IC50: > 3.3e-05 M
SUDHL5 [4]; [6]
  IC50: 2.69e-05 M
SUDHL10 [5]; [7]
  IC50: > 3.3e-05 M

## Cn1nc(COC2CC2)c2c1COCCCCn1c(C(=O)O)c(CCCOc3cccc4ccccc34)c3cccc-2c31 (single isomer, unassigned) [Example 214, 3-[(cyclopropyloxy)methyl]-1-methyl-7-[3-(naphthalen-1-yloxy)propyl]-1,10,11,12,13,15-hexahydropyrazolo[4′,3′:9,10][1,6]oxazacycloundecino[8,7,6-hi]indole-8-carboxylic Acid]
MCL-1
  IC50: 0.00524 µM
SUDHL5 [1]
  EC50: 14.9 µM
SUDHL10 [2]; Homo sapiens, SU-DHL10, 3 h
  EC50: 20.7 µM
SUDHL10 [2]
  EC50: > 33 µM
SUDHL5 [3]; Homo sapiens, SU-DHL-5, 72 h
  IC50: 9.08e-06 M
A2780
  IC50: > 3.3e-05 M
A2780; Homo sapiens, A2780, 72 h
  IC50: 2.9e-05 M
SUDHL5 [4]; [8]
  IC50: 1.14e-05 M

## CN(C)S(=O)(=O)N1CCN(c2ccc(OCc3nn(C)c4c3-c3cccc5c(CCCOc6cccc7ccccc67)c(C(=O)O)n(c35)CCCCOC4)cc2)CC1 (single isomer, unassigned; enantiomer 1) [Example 1-19, 3-({4-[4-(dimethylsulfamoyl)piperazin-1-yl]phenoxy}methyl)-1-methyl-7-[3-(naphthalen-1-yloxy)propyl]-1,10,11,12,13,15-hexahydropyrazolo[4′,3′:9,10][1,6]oxazacycloundecino[8,7,6-hi]indole-8-Carboxylic acid (Enantiomer 1)]
MCL-1
  IC50: 0.0527 µM
SUDHL5 [1]
  EC50: 17.2 µM
SUDHL10 [2]
  EC50: 20.6 µM
SUDHL5 [3]
  IC50: 5.87e-06 M
SUDHL5 [4]; [8]
  IC50: 2.7e-05 M
SUDHL10 [5]; read-out: Cytotox SUDHL10 [M] (median), SUDHL10 cells, cytotoxicity induction, CellTiter-Glo, 5 h incubation, median
  IC50: 2.52e-05 M
